These results are taken from US10196363B2, “Dihydropyrimidin-2-one compounds and medical use thereof” (JAPAN TOBACCO INC., priority 2014, dated 2019).

Bounds are passed on as bounds.

The term EC50 denotes the concentration that produces a half-maximal response.

For one assay, the target named is T1, human RORγ (Homo sapiens, UniProt P51449).
T1 construct: human RORγ, from Ser253 to Lys518; expressed in transfected cells; host or cells: CHO cells (Chinese hamster ovary), transient co-transfection with pG5-Luc
T1 sequence (P51449 253-518): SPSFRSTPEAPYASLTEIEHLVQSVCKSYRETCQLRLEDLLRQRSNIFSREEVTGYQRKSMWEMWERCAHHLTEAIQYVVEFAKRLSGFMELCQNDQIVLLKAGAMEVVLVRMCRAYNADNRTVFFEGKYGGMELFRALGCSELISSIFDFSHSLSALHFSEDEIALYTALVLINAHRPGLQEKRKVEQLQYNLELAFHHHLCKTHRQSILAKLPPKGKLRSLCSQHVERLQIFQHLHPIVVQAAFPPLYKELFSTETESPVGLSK
Put plainly: In vitro assay of inhibitory effect against RORγ transcriptional activity (GAL4-hRORγ LBD luciferase reporter gene assay in CHO cells). The settings on record: for EC50: GAL4-hRORγ LBD luciferase reporter, CHO cells, read-out: LUC EC50 hRORγ; for hRORγ luciferase activity, %-of-control: value in parentheses beside the EC50 bound, vehicle-control 0.2% DMSO alone = 100%. In kind it is cell-based. An outline of the steps:
(§1)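 CHO cells, transient GAL4-RORγ LBD + pG5-Luc; cmpd 8 conc, 0.2% DMSO, 2 d, 37 °C, 5% CO2. SteadyLite luminescence, %-of-DMSO control (100%), EC50 by curve fit. Cytotoxic concentrations (resazurin) excluded.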

A further assay deals with T2, mouse RORγ (Mus musculus, UniProt P51450).
T2 construct: mouse RORγ, from Ile251 to Lys516; expressed in transfected cells; host or cells: CHO cells (Chinese hamster ovary), transient co-transfection with pG5-Luc
T2 sequence (P51450 251-516): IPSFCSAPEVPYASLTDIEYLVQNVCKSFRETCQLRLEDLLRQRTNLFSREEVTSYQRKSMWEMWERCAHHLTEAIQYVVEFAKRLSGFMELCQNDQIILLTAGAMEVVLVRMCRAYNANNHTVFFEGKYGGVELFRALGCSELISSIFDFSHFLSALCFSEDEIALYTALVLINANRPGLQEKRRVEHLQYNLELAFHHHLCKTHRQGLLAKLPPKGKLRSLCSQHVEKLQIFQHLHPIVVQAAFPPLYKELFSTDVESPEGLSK
As to the kind of experiment: In vitro assay of inhibitory effect against RORγ transcriptional activity (GAL4-mRORγ LBD luciferase reporter gene assay in CHO cells). Conditions: for EC50: GAL4-mRORγ LBD luciferase reporter, CHO cells, read-out: LUC EC50 mRORγ; for mRORγ luciferase activity, %-of-control: value in parentheses beside the EC50 bound, vehicle-control 0.2% DMSO alone = 100%. Format: cell-based. An outline of the steps:
as §1

On to `COC[C@H]1C[C@H](N2C=C(C(C)(C)CCC(=O)O)[C@](C)(c3ccc(CCC(C)(C)C)c(Cl)c3)NC2=O)C1` [Example 198], for which the values for the EC50 at human RORγ and at mouse RORγ were 12 nM and 26 nM, respectively.
As for `CC(C)(C)CCc1ccc([C@]2(C)NC(=O)N(C3CCOCC3)C=C2[C@H]2C[C@@H](C(=O)O)C2)cc1Cl` [Example 199], the EC50 on human RORγ was determined as 70 nM; on mouse RORγ it was 136 nM.
In the case of `CO[C@H]1C[C@H](N2C=C([C@H]3C[C@@H](C(=O)O)C3)[C@](C)(c3ccc(CCC(C)(C)C)c(Cl)c3)NC2=O)C1` [Example 200], the EC50 on human RORγ came out at 14 nM; on mouse RORγ, 23 nM.
With `CC(C)CC1=CN(CCC(=O)O)C(=O)N[C@@]1(C)c1ccc(OCC(C)(C)C)c(Cl)c1F` [Example 201], the EC50 on human RORγ is 60 nM; at mouse RORγ, 51 nM.
`CC(C)CCOc1ccc([C@]2(C)NC(=O)N(CCC(=O)O)C=C2CC(C)C)c(F)c1Cl` [Example 202]: the values for the EC50 at human RORγ and on mouse RORγ were 87 nM and 52 nM, respectively.
On the same counts, the results for `CC(C)C1=CN(c2ccc(C(=O)O)cc2)C(=O)N[C@@]1(C)c1ccc(COC(C)(C)C)c(Cl)c1` [Example 203] are 30 nM and 21 nM.
For `CC(C)C1=CN(Cc2ccc(C(=O)O)cc2)C(=O)N[C@@]1(C)c1ccc(CCC(C)(C)C)c(Cl)c1` [Example 204], the figures for the EC50 on human RORγ and on mouse RORγ were 14 nM and 17 nM, respectively.
Turning to `CC(C)(C)CCc1ccc([C@]2(C)NC(=O)N([C@H]3C[C@H](C(=O)O)C3)C=C2[C@H]2C[C@@H](CO)C2)cc1Cl` [Example 205], the EC50 on human RORγ came out at 281 nM; on mouse RORγ it was 427 nM.
On the same counts, the results for `COC[C@H]1C[C@@H](C2=CN(CCC(=O)O)C(=O)N[C@@]2(C)c2ccc(CCC(C)(C)C)c(Cl)c2)C1` [Example 206] are 81 nM and 117 nM.
Consider `CC(C)C1=CN(c2ccc(C(=O)O)cc2F)C(=O)N[C@@]1(C)c1ccc(CCC(C)(C)C)c(Cl)c1` [Example 207], for which the EC50 was determined as 9 nM on human RORγ and 18 nM at mouse RORγ.
The corresponding values for `CC(C)C1=CN(c2ccc(F)c(C(=O)O)c2)C(=O)N[C@@]1(C)c1ccc(CCC(C)(C)C)c(Cl)c1` [Example 208] are 21 nM and 40 nM.
Consider `COCCC(C)(C)CC1=CN(c2ccc(C(=O)O)cc2)C(=O)N[C@@]1(C)c1ccc(CCC(C)(C)C)c(Cl)c1` [Example 209], for which the EC50 was determined as 51 nM at human RORγ and 74 nM at mouse RORγ.
For `COCCC1=CN(c2ccc(C(=O)O)cc2)C(=O)N[C@@]1(C)c1ccc(CCC(C)(C)C)c(Cl)c1` [Example 210], the EC50 on human RORγ was 6 nM; on mouse RORγ, 7 nM.
Take `COCCC1=CN(CCC(=O)O)C(=O)N[C@@]1(C)c1ccc(CCC(C)(C)C)c(Cl)c1` [Example 211]: the concentration giving a half-maximal response (EC50) is 11 nM at human RORγ and 8 nM on mouse RORγ.
As for `COc1cc([C@@]2(C)NC(=O)N(CCC(=O)O)C=C2C(C)C)ccc1CCC(C)(C)C` [Example 212], on human RORγ, the concentration giving a half-maximal response (EC50) is greater than 8000 nM and the “hRORγ luciferase activity, %-of-control” value was “(68%)”. For the same molecule, at mouse RORγ, the EC50 is greater than 8000 nM and the “mRORγ luciferase activity, %-of-control” value was “(81%)”.
Take `COc1cc([C@]2(C)NC(=O)N(CCC(=O)O)C=C2C(C)C)ccc1CCC(C)(C)C` [Example 213]: the EC50 was 131 nM on human RORγ and 56 nM at mouse RORγ.
On the same counts, the results for `CC(C)CSc1ccc([C@]2(C)NC(=O)N(CCC(=O)O)C=C2C(C)C)cc1Cl` [Example 214] are 169 nM and 100 nM.
As for `CC(C)CCS(=O)(=O)c1ccc([C@]2(C)NC(=O)N(CCC(=O)O)C=C2C(C)C)cc1Cl` [Example 216], at human RORγ, the EC50 was greater than 20000 nM and the “hRORγ luciferase activity, %-of-control” value is “(86%)”. Moreover, on mouse RORγ, the EC50 is greater than 20000 nM and the “mRORγ luciferase activity, %-of-control” value is “(76%)”.
As to `CC(C)CCSc1ccc([C@]2(C)NC(=O)N(CCC(=O)O)C=C2C(C)C)cc1Cl` [Example 218], the EC50 at human RORγ came to 376 nM; at mouse RORγ, 122 nM.
Consider `CC(C)CS(=O)(=O)c1ccc([C@]2(C)NC(=O)N(CCC(=O)O)C=C2C(C)C)cc1Cl` [Example 219], for which, on human RORγ, the EC50 is greater than 20000 nM and the “hRORγ luciferase activity, %-of-control” value was “(88%)”. At mouse RORγ, the EC50 was greater than 20000 nM and the “mRORγ luciferase activity, %-of-control” value is recorded as “(86%)”.
For `Cc1cc(C(=O)O)ccc1N1C=C(C(C)C)[C@](C)(c2ccc(CCC(C)(C)C)c(Cl)c2)NC1=O` [Example 220], the half-maximal effective concentration (EC50) on human RORγ is 22 nM; on mouse RORγ it was 29 nM.
Take `COc1cc(C(=O)O)ccc1N1C=C(C(C)C)[C@](C)(c2ccc(CCC(C)(C)C)c(Cl)c2)NC1=O` [Example 221]: the EC50 on human RORγ came to 25 nM; at mouse RORγ, 24 nM.
Turning to `CC(C)C1=CN(CCC(=O)O)C(=O)N[C@@]1(C)c1ccc(SC2CCCC2)c(Cl)c1` [Example 224], the values for the concentration for a half-maximal effect (EC50) on human RORγ and on mouse RORγ were 343 nM and 123 nM, respectively.
`COCCN1C=C(c2ccc(C(=O)O)cc2)[C@](C)(c2ccc(CCC(C)(C)C)c(Cl)c2)NC1=O` [Example 225]: the EC50 on human RORγ amounted to 101 nM; on mouse RORγ it was 72 nM.
Turning to `COc1cc(N2C=C(C(C)C)[C@](C)(c3ccc(CCC(C)(C)C)c(Cl)c3)NC2=O)ccc1C(=O)O` [Example 226, 4-{(S)-4-[3-Chloro-4-(3,3-dimethyl-butyl)-phenyl]-5-isopropyl-4-methyl-2-oxo-3,4-dihydro-2H-pyrimidin-1-yl}-2-methoxy-benzoic Acid], the values for the EC50 at human RORγ and at mouse RORγ were 17 nM and 20 nM, respectively.
Regarding `CC(C)C1=CN(CCC(=O)O)C(=O)N[C@@]1(C)c1ccc(S(=O)(=O)C2CCCC2)c(Cl)c1` [Example 227], on human RORγ, the concentration for a half-maximal effect (EC50) was greater than 20000 nM and the “hRORγ luciferase activity, %-of-control” value is “(89%)”. Further, on mouse RORγ, the EC50 was greater than 20000 nM and the “mRORγ luciferase activity, %-of-control” value was “(87%)”.
Consider `CC(C)C1=CN(C2(CC(=O)O)CC2)C(=O)N[C@@]1(C)c1ccc(CCC(C)(C)C)c(Cl)c1` [Example 228], for which the EC50 at human RORγ and on mouse RORγ was 32 nM in each case.
With `CC(C)(C)CCc1ccc([C@]2(C)NC(=O)N(C3CC(F)(F)C3)C=C2[C@H]2C[C@@H](C(=O)O)C2)cc1Cl` [Example 229], the EC50 is 9 nM on human RORγ and 18 nM on mouse RORγ.
Regarding `CC(C)N1C=C(CCC(=O)O)[C@](C)(c2ccc(CCC(C)(C)C)c(Cl)c2)NC1=O` [Example 230], the results for the EC50 on human RORγ and on mouse RORγ were 225 nM and 76 nM, respectively.
Regarding `CC(C)(C)CCc1ccc([C@]2(C)NC(=O)N(c3ccncc3)C=C2CCC(=O)O)cc1Cl` [Example 231], the EC50 came to 692 nM on human RORγ and 458 nM on mouse RORγ.
With `CC(C)C1=CN([C@@H]2CCC[C@@H]2C(=O)O)C(=O)N[C@@]1(C)c1ccc(CCC(C)(C)C)c(Cl)c1` [Example 234], the EC50 came to 964 nM on human RORγ and 534 nM at mouse RORγ.
Take `CC(C)C1=CN([C@@H]2CCCC[C@H]2C(=O)O)C(=O)N[C@@]1(C)c1ccc(CCC(C)(C)C)c(Cl)c1` [Example 235]: the values for the EC50 at human RORγ and at mouse RORγ were greater than 3200 nM and 1610 nM, respectively. The “hRORγ luciferase activity, %-of-control” value at human RORγ was “(70%)”.
As to `CC(C)C1=CN([C@H](C)CC(=O)O)C(=O)N[C@@]1(C)c1ccc(CCC(C)(C)C)c(Cl)c1` [Example 236], the values for the EC50 on human RORγ and at mouse RORγ were 20 nM and 15 nM, respectively.
Turning to `CC(C)(C)CCc1ccc([C@]2(C)NC(=O)N(CCC(=O)O)C=C2[C@H]2C[C@@H](CO)C2)cc1Cl` [Example 241], the values for the EC50 at human RORγ and on mouse RORγ were 112 nM and 247 nM, respectively.
Turning to `CC(C)(C)CCc1ccc([C@]2(C)NC(=O)N(C3CCC(F)(F)CC3)C=C2[C@H]2C[C@@H](C(=O)O)C2)cc1Cl` [Example 246], the EC50 at human RORγ was found to be 10 nM; at mouse RORγ, 22 nM.
Regarding `CC(C)C1=CN([C@@H](C)CC(=O)O)C(=O)N[C@@]1(C)c1ccc(CCC(C)(C)C)c(Cl)c1` [Example 247], the EC50 on human RORγ was 18 nM; at mouse RORγ, 16 nM.
For `CC(C)(C)CCc1ccc([C@]2(C)NC(=O)N(CC3CC(F)(F)C3)C=C2[C@H]2C[C@@H](C(=O)O)C2)cc1Cl` [Example 248], the figures for the EC50 on human RORγ and at mouse RORγ were 10 nM and 21 nM, respectively.
On the same counts, the results for `CC(C)(C)CCc1ccc([C@]2(C)NC(=O)N(CCC(N)=O)C=C2[C@H]2C[C@@H](C(=O)O)C2)cc1Cl` [Example 249] are 412 nM and 779 nM.
For the molecule `COCC1(N2C=C([C@H]3C[C@@H](C(=O)O)C3)[C@](C)(c3ccc(CCC(C)(C)C)c(Cl)c3)NC2=O)CC1` [Example 250], the EC50 at human RORγ is 42 nM; on mouse RORγ, 114 nM.
Take `CC(C)(C)CCc1ccc([C@]2(C)NC(=O)N(C3CC(C)(C)C3)C=C2[C@H]2C[C@@H](C(=O)O)C2)cc1Cl` [Example 251]: the EC50 was determined as 13 nM on human RORγ and 28 nM at mouse RORγ.
